Measurements published in patent US20070172957A1, “Methods of identifying anti-inflammatory macrolides” (TAISHO PHARMACEUTICAL CO., LTD., priority 2004, published 2007).

Key:
A549 cells [1] = assay: A549 microarray comparing macrolides with arachidonic acid pathway inhibitors, with IL-1β stimulation (Appendix C, Tables 6-9), and correlation analysis; assay type: cell-based; conditions: for Total # Differential Genes (95% confidence): A549, threshold 1.3; for FADS1 expression: A549 cells, microarray
Description: One inhibitor, triacsin C, acts on AA biosynthesis by inhibiting arachidonyl CoA synthetases, blocking the incorporation of free AA into phospholipids. Triacsin C is reasonably specific for AA compared to other fatty acids. However, triacsin C structurally resembles AA so it also may interfere with other steps in the AA pathway. Indomethacin is an inhibitor of COX1 and COX2 enzyme activities and therefore specifically blocks metabolism of AA into prostaglandins. […] It inhibits transcription of PLA2, and transcriptionally and post-transcriptionally regulates COX1 and COX2 activities. Dexamethasone has additional effects unrelated to AA through binding with the glucocorticoid receptor to glucocortcoid response elements.
A549 cells were pre-incubated overnight (17 hours) with macrolides (10 μM FMA-9045, 50 μM clarithromycin, 50 μM roxithromycin, 50 μM josamycin) and 15 μM triacsin C, and pre-incubated 2 hours with 100 nM indomethacin and 100 nM dexamethasone. All cells then were stimulated for 4 hours with IL-1β, because the activation of PLA2 and downstream signaling events generally requires an inflammatory stimulus. The various treatment conditions are shown below in Table 4. Following macrolide and inhibitor pre-treatment and IL-1 stimulation, the cells were lysed, total RNA was collected, and the poly-A+ mRNA fraction was purified. The resulting microarray data (Appendix C) were analyzed using the methods described in the Examples above.
The tables in Appendix C represent the effects of the arachidonic acid pathway inhibitors (“AA pathway inhibitors”) and the effects of the macrolides (“IL1+macrolide effects”). […] In both tables in Appendix C, the genes that meet this criterion (≧1.3 min fold change) are indicated in bold.
Quantitative analysis was done to determine how well the responses to the different AA pathway inhibitors correlated. The correlation values were assigned a p-value to provide statistical confidence to the correlation value. Correlation between experiments, across all spots showing good detection, was assessed by cosine vector angle to generate the data shown in Tables 7-9. A correlation coefficient close to one indicates strong correlation, whereas a value near zero indicates no correlation. P-values for each correlation coefficient were estimated based on a Fisher permutation test. In this test, each spot's expression ratios were randomly re-ordered across experiments and the degree of correlation between experiments was then reassessed. This was done repeatedly.

[2] = Plasma AUC of clarithromycin after single administration to a normal human subject; assay type: in vivo; conditions: 200 mg singly administered, read-out: plasma AUC0-8
Method: Administration of clarithromycin was carried out orally at the rate of 25, 50 or 100 […] twice daily (morning and evening) during the tobacco smoke exposure period. The plasma AUC0-8 of clarithromycin obtained when 50 mg/kg was singly administered to the mice was 2.677 μg·hr/ml while the plasma AUC0-8 of clarithromycin obtained when 200 mg of clarithromycin was singly administered to a normal human subject was 8.98 μg·hr/ml. The former concentration was substantially lower than the latter one and was an adequate concentration to be used clinically.

A549 cells [3] = assay: Microarray of differentially expressed genes in A549 cells, +/- IL-1β, +/- Clarithromycin or FMA9045 (Appendix A); assay type: cell-based; conditions: for Total # Differential Genes (95% confidence): A549, min fold change threshold 1.3
Description: (§1) The data for each cell line (A549 and THP-1) are presented in Appendices A and B. For each cell line, the data for all of the hybridizations are represented together in the same table. For each hybridization, there are two columns: the weighted mean ratio (wtd mean ratio) and the minimum fold change (min fold change). The “min fold change” represents the minimum change in expression that meets the 95% confidence threshold. It can be estimated from the log ratio and standard deviation, assuming that the uncertainty in the ratio is normally distributed. […] See also Cheng Li and Wing Hung Wong, “Model-based analysis of oligonucleotide arrays: model validation, design issues and standard error application,” Genome Biology 2001 2(8):research0032.1-0032.11 (published 3 Aug. 2001).
(§2) The analysis method to generate these tables was similar for A549 and THP-1, cells. […] It is important to note that the fold change threshold is an absolute number, and the direction of change (increased or decreased expression) must be determined by the looking at the weighted mean ratio. The significance threshold criteria are included in parentheses in each “min fold change” column. The weighted mean ratios representing significant differentials (95% confidence, p value <0.05) are in bold. The “Spot IDs” correspond to publicly available cDNA sequences for the region of the gene represented at that spot on the microarray chip.
(§3) For the A549 and THP-1 cell lines (Appendix A and B, respectively), the first table for each cell line (“total differentials”) represents all of the genes that show differential expression in at least one of the hybridizations. The second table for A549 and THP-1 cells (“drug effects, sum ≧4.5” and “drug effects, sum ≧5”, respectively) has an additional final column, “sum of min fold change.” This column represents the sum of the minimum fold changes for all of the groups except the stimulus alone. This column was used to rank the genes in order of the greatest global drug effect, independent of whether the drug used was Clarithromycin or FMA9045 and independent of stimulus effect.
As noted above, a sum min fold change ≧4.5 was used as the threshold for ranking the most highly regulated drug effects. In both tables in Appendix A, the genes that meet this criterion (sum ≧4.5) are in bold, and those genes that are bold and italics are the most highly regulated genes and have a min fold change ≧5.0.

THP-1 cells = assay: Microarray of differentially expressed genes in THP-1 cells, +/- LPS, +/- Clarithromycin or FMA9045 (Appendix B, Appendix F); assay type: cell-based; conditions: for Total # Differential Genes (95% confidence): THP-1, min fold change threshold 1.5 (Clari), 1.3 (FMA)
Description: as §1, §2, §3
For THP-1 cells, a sum min fold change ≧5.0 was used as the threshold for ranking the most highly regulated drug effects. In both tables in Appendix B, the genes that meet this criterion (sum ≧5) are in bold and in italics. A larger sum min fold change threshold was used for THP-1 cells, because the macrolide response in this cell line was more robust than that in A549 cells.
The influence of a macrolide compound on the level of expression of the gene of the material related to inflammatory disease of the lung is summarized in Appendix F. In Appendix F, ‘+/−Clari, wtd means’ denotes gene induction (suppression) when clarithromycin is added to THP-1 cells, and the larger the figure, the more the gene is expressed. Furthermore, ‘+LPS+/−Clari, wtd means’ denotes gene induction (suppression) when clarithromycin is added to LSP-stimulated THP-1 cells, and the smaller the figure, the more the gene expression is suppressed.

[4] = IL1 + Triacsin vs IL1 + Triacsin + macrolide 50 μM
[5] = IL1 vs IL1 + drug, macrolides 50 μM (FMA 10 μM), triacsin C 15 μM, indomethacin and dexamethasone 100 nM
[6] = A549 + IL-1β, of the genes regulated by the labelled drug

CC[C@H]1OC(=O)[C@H](C)[C@@H](O[C@H]2C[C@@](C)(OC)[C@@H](O)[C@H](C)O2)[C@H](C)[C@@H](O[C@@H]2O[C@H](C)C[C@H](N(C)C)[C@H]2O)[C@](C)(O)C[C@@H](C)/C(=N\OCOCCOC)[C@H](C)[C@@H](O)[C@]1(C)O [roxithromycin]
Total # Differential Genes (95% confidence) (A549 cells [1]; [4]): 7 | Total # Differential Genes (95% confidence) (A549 cells [1]; [5]): 65 | FADS1 expression (A549 cells [1]): differentially expressed

CC[C@H]1OC(=O)[C@H](C)[C@@H](O[C@H]2C[C@@](C)(OC)[C@@H](O)[C@H](C)O2)[C@H](C)[C@@H](O[C@@H]2O[C@H](C)C[C@H](N(C)C)[C@H]2O)[C@](C)(OC)C[C@@H](C)C(=O)[C@H](C)[C@@H](O)[C@]1(C)O [clarithromycin]
AUC(0-t) [2]: 8980 ng·h/mL | Total # Differential Genes (95% confidence) (A549 cells [3]; +/- drug alone): 117 | Total # Differential Genes (95% confidence) (A549 cells [3]; IL-1 +/- drug): 127 | IL1b +/− clari, wtd mean ratio (A549 cells [3]; A549 cells with IL1b stimulation, microarray expression ratio, gene = SpotID/GeneSymbol): 0.9 | Clari treated, wtd mean ratio (A549 cells [3]; A549 cells, Clari treated, no IL1, expression ratio of the gene/spot of the table line): 0.9 | IL1b +/− clari, wtd mean ratio (A549 cells [3]; A549 cells, IL1b stimulated, with vs without clari, gene/spot of the table line): 0.9 | Clari treated, wtd mean ratio (A549 cells [3]; A549 cells, microarray expression ratio, gene = SpotID/GeneSymbol): 0.9 | Clari treated, wtd mean ratio (A549 cells [3]; A549 cells, per microarray spot/gene, Clari treated, no IL1): 0.9 | IL1b +/− clari, wtd mean ratio (A549 cells [3]; A549 cells, per microarray spot/gene, IL1b stimulated, with vs without clari): 0.9 | expression of SERPINB3 gene (THP-1 cells; Category 1, Appendix F): enhancing the expression | Total # Differential Genes (95% confidence) (THP-1 cells; +/- drug alone): 127 | Total # Differential Genes (95% confidence) (THP-1 cells; LPS +/- drug): 120 | LPS +/− clari, wtd mean ratio (THP-1 cells; THP-1 cells with LPS, gene given in each table row): 0.9 | LPS +/− clari, wtd mean ratio (THP-1 cells; THP-1 cells, LPS stimulated, with vs without clari, gene/spot = table row): 0.9 | Clari treated, wtd mean ratio (THP-1 cells; THP-1 cells, no LPS, gene given in each table row): 0.9 | Clari treated, wtd mean ratio (THP-1 cells; THP-1 cells, microarray expression ratio, gene/spot = table row): 0.9 | expression of proteinase genes (MMP12, MMP9, MMP19, cathepsin K, cathepsin C) (THP-1 cells; induced during inflammatory stimulation, Category 2): suppresses the expression | expression of the chemokine gene (THP-1 cells; induced during inflammatory stimulation, Category 3): suppresses expression | Number of differentially expressed genes also differential in response to indomethacin (A549 cells [1]; [6]): 25 | Number of differentially expressed genes also differential in response to triacsin C (A549 cells [1]; [6]): Forty-two | Total # Differential Genes (95% confidence) (A549 cells [1]; [4]): 4 | Total # Differential Genes (95% confidence) (A549 cells [1]; [5]): 54 | FADS1 expression (A549 cells [1]): differentially expressed

CO[C@@H]1[C@@H](O[C@@H]2O[C@H](C)[C@@H](O[C@H]3C[C@@](C)(O)[C@@H](OC(=O)CC(C)C)[C@H](C)O3)[C@H](N(C)C)[C@H]2O)[C@@H](CC=O)C[C@@H](C)[C@@H](O)/C=C/C=C/C[C@@H](C)OC(=O)C[C@H]1OC(C)=O [josamycin]
Total # Differential Genes (95% confidence) (A549 cells [1]; [5]): 73
